Key:
Test in all cases: relative viability (nuclei count vs DMSO), 5 days (fraction); higher = more cells survive
[1] = tested on: LCLC-103H
In short: (§1)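 Nuclei were stained with Hoechst during a one-step fixation (final 0.05% Triton X-100, 1% formaldehyde, 1 ug/ml Hoechst) carried out 5 days after dosing, then counted on 4× images. The cells, lung cancer lines in 1536-well plates, had been dosed by pin tool the day after seeding with one drug alone or a fixed anchor-drug dose plus five library-drug doses (not always all listed) in √10 steps. Relative viability is the nuclei count in treated wells divided by that in vehicle wells, and each value is the median of duplicate plates.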

[2] = tested on: SK-LU-1
In short: as §1

[3] = tested on: EPLC-272H
In short: as §1

[4] = tested on: NCI-H1915
In short: as §1

[5] = tested on: NCI-H2405
In short: as §1

[6] = tested on: ABC-1
In short: as §1

[7] = tested on: NCI-H647
In short: as §1

[8] = tested on: NCI-H1395
In short: as §1

[9] = tested on: NCI-H661
In short: as §1

[10] = tested on: RERF-LC-KJ
In short: as §1

[11] = tested on: NCI-H1793
In short: as §1

[12] = tested on: LOU-NH91
In short: as §1

[13] = tested on: NCI-H2023
In short: as §1

[14] = tested on: NCI-H1437
In short: as §1

[15] = tested on: EMC-BAC-2
In short: as §1

[16] = tested on: 201T
In short: as §1

[17] = tested on: UMC-11
In short: as §1

[18] = tested on: NCI-H1651
In short: as §1

[19] = tested on: NCI-H23
In short: as §1

[20] = tested on: NCI-H1734
In short: as §1

[21] = tested on: HCC-78
In short: as §1

[22] = tested on: NCI-H1975
In short: as §1

## O=c1[nH]c2ccccc2n1C1CCN(CCCC(c2ccc(F)cc2)c2ccc(F)cc2)CC1 [Pimozide] + COc1cc2c(Oc3ccc(NC(=O)C4(C(=O)Nc5ccc(F)cc5)CC4)cc3F)ccnc2cc1OCCCN1CCOCC1 [Foretinib] (partner 0.25 µM)
[1]; first compound 0.08 µM
  relative viability: 0.946
[1]; first compound 0.253 µM
  relative viability: 0.716
[1]; first compound 0.8 µM
  relative viability: 0.747
[1]; first compound 2.53 µM
  relative viability: 0.678
[1]; first compound 8 µM
  relative viability: 0.591
[2]; first compound 0.08 µM
  relative viability: 0.888
[2]; first compound 0.253 µM
  relative viability: 0.793
[2]; first compound 0.8 µM
  relative viability: 0.783
[2]; first compound 2.53 µM
  relative viability: 0.777
[2]; first compound 8 µM
  relative viability: 0.637
[3]; first compound 0.08 µM
  relative viability: 0.631
[3]; first compound 0.253 µM
  relative viability: 0.667
[3]; first compound 0.8 µM
  relative viability: 0.539
[3]; first compound 2.53 µM
  relative viability: 0.175
[3]; first compound 8 µM
  relative viability: 0.567
[4]; first compound 0.08 µM
  relative viability: 1.05
[4]; first compound 0.253 µM
  relative viability: 1.01
[4]; first compound 0.8 µM
  relative viability: 0.855
[4]; first compound 2.53 µM
  relative viability: 0.974
[4]; first compound 8 µM
  relative viability: 1.05
[5]; first compound 0.08 µM
  relative viability: 1.03
[5]; first compound 0.253 µM
  relative viability: 1.02
[5]; first compound 0.8 µM
  relative viability: 1.04
[5]; first compound 2.53 µM
  relative viability: 0.961
[5]; first compound 8 µM
  relative viability: 0.838
[6]; first compound 0.08 µM
  relative viability: 1.11
[6]; first compound 0.253 µM
  relative viability: 0.995
[6]; first compound 0.8 µM
  relative viability: 0.723
[6]; first compound 2.53 µM
  relative viability: 0.891
[6]; first compound 8 µM
  relative viability: 0.767
[7]; first compound 0.08 µM
  relative viability: 1.28
[7]; first compound 0.253 µM
  relative viability: 1.17
[7]; first compound 0.8 µM
  relative viability: 1.14
[7]; first compound 2.53 µM
  relative viability: 1.22
[7]; first compound 8 µM
  relative viability: 1.17
[8]; first compound 0.08 µM
  relative viability: 1.02
[8]; first compound 0.253 µM
  relative viability: 0.975
[8]; first compound 0.8 µM
  relative viability: 0.953
[8]; first compound 2.53 µM
  relative viability: 1.03
[8]; first compound 8 µM
  relative viability: 0.91
[9]; first compound 0.08 µM
  relative viability: 1.02
[9]; first compound 0.253 µM
  relative viability: 1.03
[9]; first compound 0.8 µM
  relative viability: 0.929
[9]; first compound 2.53 µM
  relative viability: 0.921
[9]; first compound 8 µM
  relative viability: 0.907
[10]; first compound 0.08 µM
  relative viability: 0.907
[10]; first compound 0.253 µM
  relative viability: 0.844
[10]; first compound 0.8 µM
  relative viability: 0.831
[10]; first compound 2.53 µM
  relative viability: 0.821
[10]; first compound 8 µM
  relative viability: 0.848
[11]; first compound 0.253 µM
  relative viability: 0.691
[11]; first compound 0.8 µM
  relative viability: 0.462
[11]; first compound 2.53 µM
  relative viability: 0.582
[11]; first compound 8 µM
  relative viability: 0.521
[12]; first compound 0.08 µM
  relative viability: 0.586
[12]; first compound 0.253 µM
  relative viability: 0.743
[12]; first compound 0.8 µM
  relative viability: 0.879
[12]; first compound 2.53 µM
  relative viability: 0.944
[12]; first compound 8 µM
  relative viability: 0.888
[13]; first compound 0.08 µM
  relative viability: 0.687
[13]; first compound 0.253 µM
  relative viability: 0.916
[13]; first compound 0.8 µM
  relative viability: 0.91
[13]; first compound 2.53 µM
  relative viability: 0.705
[13]; first compound 8 µM
  relative viability: 0.64
[14]; first compound 0.08 µM
  relative viability: 1.27
[14]; first compound 0.253 µM
  relative viability: 1.21
[14]; first compound 0.8 µM
  relative viability: 1.21
[14]; first compound 2.53 µM
  relative viability: 1.28
[14]; first compound 8 µM
  relative viability: 1.18
[15]; first compound 0.08 µM
  relative viability: 0.989
[15]; first compound 0.253 µM
  relative viability: 1.03
[15]; first compound 0.8 µM
  relative viability: 0.986
[15]; first compound 2.53 µM
  relative viability: 0.841
[15]; first compound 8 µM
  relative viability: 0.686
[16]; first compound 0.08 µM
  relative viability: 1.08
[16]; first compound 0.253 µM
  relative viability: 1.06
[16]; first compound 0.8 µM
  relative viability: 0.979
[16]; first compound 2.53 µM
  relative viability: 1.02
[16]; first compound 8 µM
  relative viability: 0.909
[17]; first compound 0.08 µM
  relative viability: 1.05
[17]; first compound 0.253 µM
  relative viability: 1.01
[17]; first compound 0.8 µM
  relative viability: 1
[17]; first compound 2.53 µM
  relative viability: 1.14
[17]; first compound 8 µM
  relative viability: 1.07
[18]; first compound 0.08 µM
  relative viability: 0.763
[18]; first compound 0.253 µM
  relative viability: 0.717
[18]; first compound 0.8 µM
  relative viability: 0.867
[18]; first compound 2.53 µM
  relative viability: 0.871
[18]; first compound 8 µM
  relative viability: 0.869
[19]; first compound 0.08 µM
  relative viability: 0.676
[19]; first compound 0.253 µM
  relative viability: 1.07
[19]; first compound 0.8 µM
  relative viability: 0.833
[19]; first compound 2.53 µM
  relative viability: 0.712
[19]; first compound 8 µM
  relative viability: 0.829
[20]; first compound 0.08 µM
  relative viability: 0.77
[20]; first compound 0.253 µM
  relative viability: 0.767
[20]; first compound 2.53 µM
  relative viability: 0.883
[20]; first compound 8 µM
  relative viability: 0.834
[21]; first compound 0.08 µM
  relative viability: 0.536
[21]; first compound 0.8 µM
  relative viability: 0.482
[21]; first compound 2.53 µM
  relative viability: 0.564
[21]; first compound 8 µM
  relative viability: 0.573
[22]; first compound 0.08 µM
  relative viability: 0.948
[22]; first compound 0.253 µM
  relative viability: 0.84
[22]; first compound 0.8 µM
  relative viability: 1.02
[22]; first compound 2.53 µM
  relative viability: 0.847
[22]; first compound 8 µM
  relative viability: 0.952

Reference: the supplement of paper PMC10307832
